Assay results: patent publication US11925624B2, “Methods of administering anti-fibrotic therapy” (GENENTECH, INC., priority 2016, dated 2024)
Read-outs that look alike come from different tables or passages of the source.

Test: Phase 1 Part A proton pump inhibitor (rabeprazole) effect on single-dose pharmacokinetics
Format: in vivo, human
Settings: for AUC0-t (norm) / AUC0-∞ (norm) / CL/F / CL/F(norm) / Cmax (norm) / λZ / % AUCextrap / AUC(0-inf) / AUC(0-t) / Cmax / half-life / Tmax / Vd/F: +20 mg Rabeprazole QD x 3; for % AUCextrap: arithmetic mean; for AUC(0-inf) / AUC(0-t) / Cmax / half-life / Tmax / Vd/F: human, plasma, oral; for Tmax: median
Source text: This study was a randomized, blinded, placebo-controlled, ascending-dose study to evaluate the safety, tolerability, and pharmacokinetic (PK) of single (Part A) and multiple (Part B) doses of Compound I in healthy subjects. In addition, the effects of a standard high-fat breakfast, standard low-fat breakfast, and pretreatment and co-administration of a proton pump inhibitor (PPI) on the tolerability and PK of a single dose of Compound I were investigated in 2 groups in Part A. All subjects received their full dose of Compound I, administered as the appropriate number of either 25 or 200 mg tablets. The high fat breakfast comprised the following: total energy: 895 kcal; total fat: 61 g; total protein: 41 g; total carbohydrate: 46 g. The low fat breakfast comprised the following: total energy: 611 kcal; total fat: 14.7 g; total protein: 20.3 g; total carbohydrate: 106.3 g.
For Group A4, doses (400 mg Compound I or placebo) during Treatment Period 1 were administered in a fasted state on the morning of Day 1. Doses in Treatment Period 2 were administered 30 minutes after starting, and within approximately 10 minutes of completing, a high-fat standard breakfast on the morning of Day 1. Doses during Treatment Period 3 were administered 30 minutes after starting, and within approximately 10 minutes of completing a low-fat standard meal on the morning of Day 1. Doses during Treatment Period 4 were administered on Day 1 after an overnight fast and following administration of a PPI (rabeprazole 20 mg) for 3 days (given as 3 daily [QD] doses, with the final PPI dose at 2 hours prior to study drug administration on Day 1). Subjects in Group A4 received the same Compound I or placebo treatment in all treatment periods, such that each subject received up to 4 single doses of Compound I or placebo.
For Group A5, doses (800 mg Compound I or placebo) during Treatment Period 1 were administered in a fasted state on the morning of Day 1, doses during Treatment Period 2 were administered 30 minutes after starting a low-fat standard breakfast on the morning of Day 1, and doses during Treatment Period 3 were administered on Day 1 after a low-fat meal and following administration of a PPI (rabeprazole 20 mg) for 3 days (given as 3 QD doses, with the final PPI dose at 2 hours prior to study drug administration on Day 1). Subjects in Group A5 received the same Compound I or placebo treatment in all treatment periods, such that each subject received up to 3 single doses of Compound I or placebo.
In Part A, all doses in Treatment Period 1 were administered after an overnight fast of at least 8 hours. For the A4 cohort, in Treatment Periods 2 and 3, doses were administered 30 minutes after starting and approximately 10 minutes after completing a high- or low-fat breakfast. In Treatment Period 4, the dose was administered after an overnight fast and following administration of a PPI (PPI was comprised of 3 doses of rabeprazole 20 mg, starting on Day −2 and with the final dose 2 hours before Compound I administration on Day 1). For Group A5, doses during Treatment Period 2 were administered 30 minutes after starting and approximately 10 minutes after completing a low-fat standard breakfast on the morning of Day 1, and doses during Treatment Period 3 were administered on Day 1 after a low-fat meal and following administration of a PPI for 3 days (given as 3 QD doses, with the final PPI dose at 2 hours prior to study drug administration on Day 1).

[1] = 400 mg Fasted + 20 mg Rabeprazole QD x 3 (Test) vs 400 mg Fasted (Reference)
[2] = 400 mg single dose (A4), Fasted
[3] = 800 mg Fed, Low-fat + 20 mg Rabeprazole QD x 3 (Test) vs 800 mg Fed, Low-fat (Reference)
[4] = 800 mg single dose (A5), Fed, Low-fat
[5] = pretreatment and co-administration of 20 mg rabeprazole (QD×3), low-fat fed state, compared to Compound I alone

For `Cn1cc(-c2cn(-c3ccc(OC(F)(F)F)cc3)c(=O)c3ncn(C)c23)cn1` [Compound I], the “Test/Reference ratio of LS means, AUC0-t” value [1] was 86.4%, the “Test/Reference ratio of LS means, AUC0-∞” value [1] was 87.2% and the “Test/Reference ratio of LS means, Cmax” value [1] was 83.6%. For the same compound, the “AUC0-t (norm)” value [2] was 8130 (hr*ng/mL)/(mg/kg), the “AUC0-∞ (norm)” value [2] was 8410 (hr*ng/mL)/(mg/kg) and the CL/F [2] was 139 mL/min. The “CL/F(norm)” value [2] was 1.98 (mL/min)/kg, the “Cmax (norm)” value [2] was 660 ng/mL/mg/kg and the λZ [2] was 0.0603 h⁻¹. For the same compound, the “% AUCextrap” value [2] was 3.25%, the “Test/Reference ratio of LS means, AUC0-t” value [3] was 76.5% and the “Test/Reference ratio of LS means, AUC0-∞” value [3] was 77.2%. For the same compound, the “Test/Reference ratio of LS means, Cmax” value [3] was 75.0%, the “AUC0-t (norm)” value [4] was 11000 (hr*ng/mL)/(mg/kg) and the “AUC0-∞ (norm)” value [4] was 11100 (hr*ng/mL)/(mg/kg). For the same compound, the CL/F [4] was 108 mL/min, the “CL/F(norm)” value [4] was 1.50 (mL/min)/kg and the “Cmax (norm)” value [4] was 900 ng/mL/mg/kg. The λZ [4] was 0.0666 h⁻¹, the “% AUCextrap” value [4] was 1.27% and the AUC(0-inf) [2] was 48100 ng·h/mL. The AUC(0-t) [2] was 46500 ng·h/mL, the Cmax [2] was 3770 ng/mL and the half-life [2] was 10.5 h. The Tmax [2] was 2.5 h, the Vd/F (400 mg single dose (A4), Fasted, read-out: Vz/F) was 138 L and the Vd/F (400 mg single dose (A4), Fasted, read-out: Vz/F(norm)) was 1.97 L/kg. It also gave an AUC(0-inf) [4] of 124000 ng·h/mL, an AUC(0-t) [4] of 122000 ng·h/mL and a Cmax [4] of 10000 ng/mL. It also gave a half-life [4] of 8.92 h, a Tmax [4] of 3 h and a Vd/F (800 mg single dose (A5), Fed, Low-fat, read-out: Vz/F) of 97.2 L. The Vd/F (800 mg single dose (A5), Fed, Low-fat, read-out: Vz/F(norm)) was 1.35 L/kg, the “Decrease in AUC0-t” value [5] was 23.5% and the “Decrease in AUC0-∞” value [5] was 22.8%. For the same compound, the “Decrease in Cmax” value [5] was 25.0%.
